Measurements from PubChem BioAssay AID1963850 (Molecular Pharmacology Branch, DTP, NCI, 2024).
pIC50: −log10 of the molar value.

Tested on: 192522-019-R-J2-PDC complex tumor spheroid viability
Test: Anticancer human tumor 192522-019-R-J2-PDC patient-derived colon adenocarcinoma cell line growth inhibition [POLQ]
Settings: for pIC50: curve of first compound; for viability, T/C: stronger effect = lower value
Experimental: Multicellular complex tumor spheroid response to Polymerase (POL) inhibitors (novobiocin, ART-558, RP6685) in combination with a variety of drugs and investigational agents in selected tumor cell lines
The POL inhibitors (novobiocin, ART-558, and RP6685) were evaluated both individually and in combination with standard of care and investigational anticancer small molecules within a complex spheroid model of solid tumors. . Complex spheroids include a stromal component modeled by human endothelial cells (HUVEC) and fibroblasts modeled by human mesenchymal stem cells (MSCs). The concentration ranges selected for each drug and investigational agent were based upon clinically achievable concentrations if the clinical Cmax of the agent was known.
Compounds. The drugs and investigational agents: novobiocin (NSC847541), ART-558 (NSC835418), RP-6685 (NSC848927), peposertib (NSC802822), ceralasertib (NSC780249), elimusertib (NSC800525), camonsertib (NSC841442), AZD-1390 (NSC803789), olaparib (NSC753686), talazoparib (NSC767125), rucaparib (NSC756644), sotorasib (NSC818433), MRTX-1133 (NSC836407), SN-38 (NSC673596), topotecan (NSC609699), epotoside (NSC141540), doxorubicin (NSC123127), gemcitabine (NSC613327), 5-fluorouracil (NSC19893), paclitaxel (NSC125973), vemurafenib (NSC761431), MSA-2 (NSC828583), SN-011 (NSC837082), adavosertib (NSC754352), prexasertib (NSC758257), carboplatin (NSC241240) and oxaliplatin (NSC266046), were obtained from the National Cancer Institute (NCI) Developmental Therapeutics Program Chemical Repository (21). The FDA-approved anticancer drug set is available from the Developmental Therapeutics Program at https://dtp.cancer.gov/organization/dscb/obtaining/. […] The stock solutions were prepared in dimethyl sulfoxide (DMSO, Sigma-Aldrich, St. Louis, MO, cat. D2650), except for the platinum compounds which were prepared in saline (Quality Biological, Gaithersburg, MD, cat. 114-055-101), at 800-fold the tested concentration and stored at -70 degrees C prior to their use. All drugs and investigational agents were tested over a range starting from a high concentration at or near the clinical Cmax and decreasing in half-log increments. If the clinical Cmax for an agent had not been determined, the highest concentration tested was 10 microM, except for SN-38, which was tested at a high concentration of 1 microM.
Cell Culture. All cells were maintained in an incubator at 37 degrees C and 5% CO2 with 95% humidity. The PDC lines were cultured according to standard operating procedures established by the NCI PDMR (https://pdmr.cancer.gov). Table 3 of the manuscript, lists the cell lines along with the number of the three cell types plated to form the mct-spheroids and media for tumor cell growth. After thawing, all PDC lines, except 997537-175-T-J1-PDC and 415267-285-R-J2-PDC, were cultured in Matrigel-coated flasks prepared with a working solution of 1X Ham's F-12 nutrient mix, without supplementation (Thermo Fisher Scientific, cat. 11765054), 100 U/mL penicillin-streptomycin (Thermo Fisher Scientific, cat. 15140122), and 2.5% Matrigel (Corning Inc., Corning, NY, cat. 354248) for the first three passages. The two PDC lines 997537-175-T-J1-PDC and 415267-285-R-J2-PDC were cultured on uncoated flasks. The 857933-349-R-J2-PDC line was cultured in 6C/Colon 1B media containing advanced DMEM/F-12 (Thermo Fisher Scientific, cat. 12634028), 10 mM HEPES (Thermo Fisher Scientific, cat. 15630080), 1X GlutaMAX supplement (Thermo Fisher Scientific, cat. 35050061), 0.1 mg/mL primocin (InvivoGen, San Diego, CA, cat. ant-pm-2), 10% defined fetal bovine serum, heat inactivated (HyClone Laboratories Inc., Logan, UT, cat. SH30070.03HI), 50% L-WRN conditioned media (ATCC, cat. CRL-3276), 1.25 mM N-Acetyl-L-cysteine (Sigma-Aldrich, cat. A9165), 10 mM nicotinamide (Sigma-Aldrich, cat. N0636), 1X B-27 supplement (Thermo Fisher Scientific, cat. 17504044), 1X N-2 supplement (Thermo Fisher Scientific, cat. […]
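Also: spheroids exposed to drugs for seven days before reading.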
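For viability, T/C in this document: 100% = DMSO vehicle control viability in luminescence.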

With `CC(=O)O[C@H]1C(=O)[C@@]2(C)[C@H]([C@H](OC(=O)c3ccccc3)[C@]3(O)C[C@H](OC(=O)[C@H](O)[C@@H](NC(=O)c4ccccc4)c4ccccc4)C(C)=C1C3(C)C)[C@]1(OC(C)=O)CO[C@@H]1C[C@@H]2O` + COC1C(OC(N)=O)C(O)C(Oc2ccc3c(O)c(NC(=O)c4ccc(O)c(CC=C(C)C)c4)c(=O)oc3c2C)OC1(C)C the pIC50 (second compound 0.0316 µM) was under 5.52, the pIC50 (second compound 0.1 µM) was under 5.52 and the pIC50 (second compound 0.316 µM) was under 5.52. The pIC50 (second compound 1 µM) was under 5.52, the pIC50 (second compound 3.16 µM) was under 5.52 and the pIC50 (second compound 10 µM) was under 5.52. For the same molecule, the viability, T/C (second compound 0.0316 µM, first compound 0.00949 µM) was 94.2%, the viability, T/C (second compound 0.0316 µM, first compound 0.03 µM) was 72.8% and the viability, T/C (second compound 0.0316 µM, first compound 0.0949 µM) was 56.6%. It also gave a viability, T/C (second compound 0.0316 µM, first compound 0.3 µM) of 55.9%, a viability, T/C (second compound 0.0316 µM, first compound 0.949 µM) of 55.2% and a viability, T/C (second compound 0.0316 µM, first compound 3 µM) of 48.5%. The viability, T/C (second compound 0.1 µM, first compound 0.00949 µM) was 95.6%, the viability, T/C (second compound 0.1 µM, first compound 0.03 µM) was 74.7% and the viability, T/C (second compound 0.1 µM, first compound 0.0949 µM) was 59.5%. For the same molecule, the viability, T/C (second compound 0.1 µM, first compound 0.3 µM) was 54.7%, the viability, T/C (second compound 0.1 µM, first compound 0.949 µM) was 51.6% and the viability, T/C (second compound 0.1 µM, first compound 3 µM) was 56.9%. It also gave a viability, T/C (second compound 0.316 µM, first compound 0.00949 µM) of 91.6%, a viability, T/C (second compound 0.316 µM, first compound 0.03 µM) of 78.1% and a viability, T/C (second compound 0.316 µM, first compound 0.0949 µM) of 59.6%. For the same molecule, the viability, T/C (second compound 0.316 µM, first compound 0.3 µM) was 61.9%, the viability, T/C (second compound 0.316 µM, first compound 0.949 µM) was 54.6% and the viability, T/C (second compound 0.316 µM, first compound 3 µM) was 52.4%. It also gave a viability, T/C (second compound 1 µM, first compound 0.00949 µM) of 102%, a viability, T/C (second compound 1 µM, first compound 0.03 µM) of 80.6% and a viability, T/C (second compound 1 µM, first compound 0.0949 µM) of 56.6%. For the same molecule, the viability, T/C (second compound 1 µM, first compound 0.3 µM) was 52.7%, the viability, T/C (second compound 1 µM, first compound 0.949 µM) was 56.1% and the viability, T/C (second compound 1 µM, first compound 3 µM) was 54%. For the same molecule, the viability, T/C (second compound 3.16 µM, first compound 0.00949 µM) was 99.1%, the viability, T/C (second compound 3.16 µM, first compound 0.03 µM) was 84.6% and the viability, T/C (second compound 3.16 µM, first compound 0.0949 µM) was 61.5%. The viability, T/C (second compound 3.16 µM, first compound 0.3 µM) was 55.8%, the viability, T/C (second compound 3.16 µM, first compound 0.949 µM) was 56.1% and the viability, T/C (second compound 3.16 µM, first compound 3 µM) was 59.7%. It also gave a viability, T/C (second compound 10 µM, first compound 0.00949 µM) of 102%, a viability, T/C (second compound 10 µM, first compound 0.03 µM) of 76.8% and a viability, T/C (second compound 10 µM, first compound 0.0949 µM) of 57.1%. The viability, T/C (second compound 10 µM, first compound 0.3 µM) was 55.4%, the viability, T/C (second compound 10 µM, first compound 0.949 µM) was 64% and the viability, T/C (second compound 10 µM, first compound 3 µM) was 63.1%.
